Results taken from US20040091900A1, “Materials and methods for providing plants with increased resistance to environmental stress” (priority 2002, published 2004).

Key:
[1] = tested on: photosynthetic electron transport chain of thylakoid membranes; assay: In vitro heat shock of thylakoids, whole electron transport chain assay with DCPIP; assay type: biochemical, Pea; details: 40° C. for 4 min, 30% activity remained without sugars
Protocol: (§1) Pea chloroplast was isolated according to Cline (1993). Aerial portions of 50 g pea plant were chopped into small pieces into 200 ml of ice cold GR-buffer (50 mM HEPES/adjust pH 7.5 with KOH, 0.33 M sorbitol, 1 mM MgCl2, 1 mM MnCl2, 2 mM EDTA, 5 mM Na-ascorbate, 1%, BSA) and homogenized using a probe (named PTA 35/2 m). The homogenate was filtered through 1 layer of Mira cloth and centrifuged at 2000×g for 3 min in a swing-out rotor. Pellet was resuspended in GR buffer, overlayed on a Percoll gradient and centrifuged at 2000×g for 15 min in a swing out rotor. Intact plastids were collected, diluted three times with buffer (50 MM HEPES/KOH pH 8, 0.33 M sorbitol), and pelleted 1.500×g for 5 min. The pellet was resuspended in 25 ml of buffer (50 mM HEPES/KOH pH 8, 0.33 M sorbitol) and chlorophyll content was quantified.
(§2) Thylakoids were isolated according to Santarius (1996). The isolated chloroplast pellets were ruptured by resuspending at 1 mg/ml in 10 mM Hepes/KOH, pH 8, 5 mM MgCl2, and incubating 2 min on ice. Then, wash buffer 1:1 (70 mM KCl, 30 mM NaNO3, 20 mM K2SO4, 5 mM MgCl2, and 5 mM Hepes/KOH pH 7.5) was added and centrifuged 3300×g for 8 min to collect thylakoid membranes. The pellet was washed at 1 mg/ml in wash buffer and centrifuged at 3300×g for 8 min. Thylakoids were resuspended in wash buffer corresponding to 1 mg/ml chlorophyll.
Heat shock: Aliquots of 0.2 ml thylakoid in wash buffer (70 mM KCl, 30 mM NaNO3, 20 mM K2SO4, 5 mM MgCl2, and 5 mM Hepes/KOH pH 7.5) corresponding to 0.5 mg/ml chlorophyll were, exposed to heat shock at 40° C. for 4 min in the absence and presence of 2.5, 14, 28, 56, and 112 mM maltose, glucose and trehalose. Full activity of the whole electron transport chain was measured after isolation of thylakoid membranes. Five independent experiments with 3 replications each were done.
(§3) Whole electron transport chain assay, with DCPIP: This assay was done according to Hipkins and Baker (1986). Assay buffer included 0.1 M sorbitol, 50 mM Hepes-KOH pH 7.6, 5 mM NaCl, 5 mM MgCl2, 0.1 mM DCPIP. The reaction was mixed after addition of thylakoid corresponding to 25 μg/ml chlorophyll and illuminated for 10 sec at 200 μmol photons m^−2 sec^−1 light intensity. Activity of electron transport chain was determined using redox dye DCPIP reduction at 595 nm.
Maltose, trehalose and glucose were tested in vitro for compatible solute properties using thylakoid membranes for the functionality of electron transport chain against heat denaturation (FIG. 5) and freezing stress (FIG. 6). Pea thylakoids were exposed to 40° C. for 4 min (FIG. 5), where 30% of electron transport chain activity remained in the absence of compatible solute sugars. Electron transport chain activity was followed by reduction of a redox dye 2,6-dichlorophenolindophenol (DCPIP), which accepts electrons from QB of PSII and FeSA of PSI (Häder and Tevini, 1987). At physiological concentrations of 2.5 and 14 mM maltose, photosynthetic electron transport chain activity was protected 3 and 5%. respectively, during heat shock.

[2] = tested on: photosynthetic electron transport chain of thylakoid membranes; assay: In vitro freezing stress of thylakoids, whole electron transport chain assay with DCPIP; assay type: biochemical, Pea; details: −15° C. for 20 hr; for electron transport chain activity protection after freezing: 60% reduction without sugars
Protocol: as §1, §2
Freezing stress: Aliqutots of 0.2 ml thylakoid in wash buffer (70 mM KCl, 30 mM NaNO3, 20 mM K2SO4, 5 mM MgCl2, and 5 mM Hepes/KOH pH 7.5) corresponding to 0.5 mg/ml chlorophyll were exposed to freezing stress at −15° C. for 20 hrs in absence and presence of 2.5, 14, 28, 56, and 112 mM maltose, glucose and trehalose. Full activity of the whole electron transport chain was measured after isolation of thylakoid membranes. Four independent experiments with three (3) replications each were done.
as §3
Pea thylakoids were frozen (FIG. 6) at −15° C. for 20 hr, which caused a 60% reduction of electron transport chain activity. […] This protection increased gradually to 93% with the increasing concentration of maltose and was very similar to that of trehalose. Glucose at 112 mM gave 47% protection, which was much less than that of maltose or trehalose.

[3] = tested on: SspI; assay: Compatible solute assay: protection of SspI activity during heat treatment; assay type: biochemical; details: for protection of SspI activity / protection of SspI function: 50° C. for 15 min; for protection of SspI activity, time course: at least 25 min at 50° C., without sugars almost 90% activity lost; for protection of SspI function: 14 mM sugar (physiological concentration)
Protocol: SspI (New England Biolabs) is a bacterial restriction enzyme that cuts double stranded DNA. In this assay it cuts pGEX-4T-2 circular plasmid twice and generates 3.77 kb and 1.19 kb bands in the reaction buffer (50 mM NaCl, 100 mM Tris-HCL, […] MgCl2, 0.025% Triton X-100 pH 7.5 at 25° C.). Five units of SspI in reaction buffer in the absence of maltose were exposed to 50° C. for 15 min where 50% of the enzyme activity was lost and also exposed to heat temperature in the presence of 14, 100, 200 and 400 mM maltose. Then substrate, 0.5 μg of pGEX-4T-2 circular plasmid (Amersham Biosciences, Piscataway, N.J.), was added to the reaction mixture and incubated at 37 ° C. for 1 hr. […] To visualize the products, 1% agarose gel was run and 22 μl of total 50 μl reaction was loaded on to gel. The gel was run at 100 V for 30 min and stained with EtBr to visualize the product. The top band was quantified to assess the protection by maltose. Also, the same assay was done using sucrose, trehalose and glucose to compare the ability of maltose as a compatible solute. A time course experiment was conducted where SspI was treated in the absence and in the presence of 400 mM maltose, glucose, sucrose and trehalose at 50° C. for 0, 5, 10, 15, 20 and 25 min.
Compatible solutes can stabilize proteins and membranes and contribute to cell osmotic potential during stress. The compatible solute potential of maltose was tested for three different enzymes namely; SspI, Glucose-6-phosphate dehydrogenase (G6PDH) and alcohol dehydrogenase (ADH). The restriction enzyme, SspI (FIG. 4A), cuts the substrate plasmid (pGEX-4T-2; 4.97 kb) twice leading to 1 and 4 kb plasmid fragments, when the enzyme is fully functional. […] When the intensity of the 5 kb top band and the 4 kb band was equal, the enzyme was considered to have lost 50% activity. Sspl was exposed to 50° C. for 15 min (FIG. 4A) in the absence of maltose (0 mM as a control) and in the presence of (14, 100, 200, and 400 mM) maltose. The 5 kb top band, which represented the loss of activity, was quantified to determine relative protection. When the enzyme was fully active, the top band was not visible (FIG. 4A, lane C) and the intensity of the top band increased with increased loss of enzyme activity (lane 2; 0 mM sugars). […] This protection increased with the increasing maltose concentration (FIG. 4A). At 200 and 400 mM, the intensity of the top band was much less compared to 0 mM maltose.

[4] = target: T1, Glucose-6-phosphate dehydrogenase (G6PDH) (Leuconostoc mesenteroides, UniProt P11411); assay: Compatible solute assay: protection of G6PDH activity during heat shock; assay type: biochemical; details: 14, 100, 200, 400 mM sugar, 48° C. for 15 min
T1 construct: purchased Worthington Biochemical Company
Protocol: Glucose-6-phosphate dehydrogenase (G6PDH): Lyophilized G6PDH from Leuconostoc mesenteroides was purchased from Worthington Biochemical Company. G6PDH in 50 mM Tris-HCl pH 7.8 was exposed to 48° C. for 15 min, which reduced activity by 50%. G6PDH in 50 mM Tris-HCl pH 7.8 was heat shocked in the absence and presence of 14, 100, 200, and 400 mM sugars: maltose, trehalose, glucose and sucrose. […] The reaction (1.5 ml) included 2.97 mM MgCl2, 50 mM Tris-HCl pH 7.8, 0.6 mM β-NADP^+ (freshly prepared), 10 mM Glucose-6-phosphate , and 595 ng heat shocked G6PDH. Production of NADPH was followed for 3 min at 340 nm using Lambda 3A UV/VIS spectrophotometer (PERKIN-ELMER). A time course experiment with two replications was conducted where G6PDH was treated in the absence and in the presence of 400 mM maltose, glucose, sucrose and trehalose at 48° C. for 0, 10, 15, 20 and 25 min.
To test whether this protection is general, compatible solute assays were performed using G6PDH, which uses D-glucose-6-phosphate and NAD(P)^+ as substrates to produce D-glucono-δ-lactone-P and NAD(P)H (FIG. 4B). […] The same performance was seen (FIG. 7B), when the time was extended to 25 min in the presence of 400 mM of the above sugars.

T1 sequence (P11411 whole entry): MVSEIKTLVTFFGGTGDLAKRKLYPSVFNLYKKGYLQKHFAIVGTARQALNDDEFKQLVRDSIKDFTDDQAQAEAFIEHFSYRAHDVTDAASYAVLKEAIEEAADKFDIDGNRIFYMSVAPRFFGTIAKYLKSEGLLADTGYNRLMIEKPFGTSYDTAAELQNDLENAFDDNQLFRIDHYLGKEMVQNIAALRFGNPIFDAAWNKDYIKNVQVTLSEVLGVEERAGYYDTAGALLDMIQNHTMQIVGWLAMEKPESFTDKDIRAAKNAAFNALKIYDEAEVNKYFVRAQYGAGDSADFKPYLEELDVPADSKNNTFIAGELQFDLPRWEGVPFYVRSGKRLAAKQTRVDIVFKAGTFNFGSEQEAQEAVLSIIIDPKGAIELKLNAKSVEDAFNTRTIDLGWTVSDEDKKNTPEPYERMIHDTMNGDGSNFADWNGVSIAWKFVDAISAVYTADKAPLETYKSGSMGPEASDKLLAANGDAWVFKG

Row | Structure (SMILES) | electron transport chain activity protected during heat shock ([1]; 112 mM sugar) | electron transport chain activity protection after freezing ([2]; 112 mM sugar) | protection of SspI activity ([3]; 400 mM sugar) | protection of SspI activity, time course ([3]; 400 mM sugar) | electron transport chain activity protected during heat shock ([1]; 2.5 mM sugar) | electron transport chain activity protected during heat shock ([1]; 14 mM sugar) | electron transport chain activity protection after freezing ([2]; 2.5 mM sugar) | electron transport chain activity protection after freezing ([2]; 14 mM sugar) | electron transport chain activity protection after freezing, reached with increasing concentration ([2]; increasing concentration (concentration not given; up to 112 mM tested)) | protection of SspI function [3] | protection of SspI function ([3]; listed as Maltose) | protection of SspI activity ([3]; 200 mM sugar) | protection of G6PDH activity [4]
1 | O=C[C@H](O)[C@@H](O)[C@H](O)[C@H](O)CO [glucose, reference compound] | 30% | 47% | 100% | 100% |  |  |  |  |  |  |  |  | 
2 | OC[C@H]1O[C@H](O[C@H]2[C@H](O)[C@@H](O)[C@H](O)O[C@@H]2CO)[C@H](O)[C@@H](O)[C@@H]1O [maltose, 4-O-α-D-Glucopyranosyl-β-D-glucose] | 45% |  | 85-90% | about 90% | 3% | 5% | 2% | 24% | 93% | able to partially protect SspI function | performed as well as trehalose | 80-90% | performed as well as the other compatible solute sugars
3 | OC[C@H]1O[C@@](CO)(O[C@H]2O[C@H](CO)[C@@H](O)[C@H](O)[C@H]2O)[C@@H](O)[C@@H]1O [sucrose] |  |  | 100% | 100% |  |  |  |  |  |  |  |  | 
4 | OC[C@H]1O[C@H](O[C@H]2O[C@H](CO)[C@@H](O)[C@H](O)[C@H]2O)[C@H](O)[C@@H](O)[C@@H]1O [trehalose] | 54% |  | 100% | 100% |  |  |  |  |  |  |  | 100% | 
